O.O=C([O-])[C@H](O)[C@@H](O)[C@H](O)[C@H](O)CO.O=C([O-])[C@H](O)[C@@H](O)[C@H](O)[C@H](O)CO.[Ca+2]
solubility (mole fraction)
Details	in acetonitrile	in ethanol	in methanol	in n-propanol	in water
279.15 K	4.28e-06	9.52e-06	1.15e-05	5.01e-06	–
279.65 K	–	–	–	–	0.000997
283.15 K	4.56e-06	1.06e-05	1.26e-05	5.83e-06	–
284.65 K	–	–	–	–	0.00108
288.15 K	5.33e-06	1.29e-05	1.46e-05	7.78e-06	–
289.15 K	–	–	–	–	0.0012
293.15 K	7.75e-06	1.51e-05	1.77e-05	1.04e-05	–
294.15 K	–	–	–	–	0.00129
298.15 K	1.02e-05	1.73e-05	1.95e-05	1.33e-05	–
299.15 K	–	–	–	–	0.00146
303.15 K	1.24e-05	1.99e-05	2.34e-05	1.62e-05	0.00165
308.15 K	–	–	–	–	0.00199
308.65 K	1.64e-05	2.32e-05	2.65e-05	–	–
313.15 K	–	–	–	–	0.00227
313.65 K	1.99e-05	2.75e-05	2.99e-05	–	–
318.15 K	2.39e-05	3.04e-05	3.5e-05	–	0.00269
323.15 K	–	–	–	–	0.00311
